Patent publication US20210261539A1, “COMPOUND HAVING BET INHIBITORY ACTIVITY AND PREPARATION METHOD AND USE THEREFOR” (Shanghai Haihe Pharmaceutical Co., Ltd., priority 2018, published 2021)

Molecular target: T1, BRD4 BD1 (Homo sapiens, UniProt O60885)
T1 construct: Protein BRD4 BD1 used in the assay was purchased from Active Motif (cat. 31380); purchased Active Motif 31380
Assay: HTRF in vitro enzyme activity assay, inhibition of BRD4 BD1 binding to acetylated H4 peptide
Details: IC50 values of the compounds against BRD4 BD1 binding; class symbols A/B/C
Description: Effect Examples: In Vitro Enzyme Activity Assay
Half inhibitory activity (IC50) of the compounds of the invention against the bromodomain protein BRD4 BD1 was determined in the present Examples.
The compounds of the invention were tested for inhibitory activity against BRD4 BD1 with Homogeneous Time-Resolved Fluorescence (HTRF).
2. Reagents, Consumable Materials and Instruments:
Protein BRD4 BD1 used in the assay was purchased from Active Motif (cat. 31380); streptavidin XL-665 (#610SAXLA) and EPIgeneous Binding Domain Kit A (#62BDAPEG) were both purchased from Cisbio Bioassays; [Lys(5,8,12,16)Ac] H4(1-21)-biotin (#64989), [Lys(5,8,12,16)Ac]H4(1-25) were available from Anaspec; OTX015 and ABBV-075 were purchased from Selleckchem Co. The 384-well ProxiPlate (#6008280) was purchased from Perkinelmer Co. The Laboratory microplate reader (Envision 2104) was available from PerkinElmer Co. The water used in the assay was Millipore-Q pure water.
3. Formulation of the Compound
10 mM DMSO stock solution of the test compound was diluted to 1 mM in DMSO, and then diluted 10-fold in Binding Domain dilution buffer (purchased from Cisbio Bioassays) for use (DMSO concentration in the final system was 0.1%), including 5 concentrations in 1:5 gradient.
4. Assay Protocol: 1 Batch, 2 Repeats
1) 5 μL of test compound was transferred to 45 μL Binding Domain dilution buffer.
2) 2 μL of 1× compound (4 μL Binding Domain dilution buffer: positive control; 6 μL enzyme buffer (purchased from Cisbio Bioassays): negative control) was transferred to a reaction plate.
3) 4 μL of 5×BRD 4(1) was added to the reaction plate (30 nM in the final system).
4) 4 μL of 5×[Lys(5,8,12,16)Ac] H4(1-21)-biotin was added to the reaction plate, and the plate was covered with a film and incubated at 37° C. for 30 min.
5) A detection mixture of SA-XL665 (2×) and anti-H3K9me0-Eu(K) (2×) was prepared in detection buffer (purchased from Cisbio Bioassays).
6) 10 μL of detection mixture (2×) was added to each well, incubated at RT for 3 h. The mp value was read by microplate reader Envision with the following parameters: […]

IC50 [nM]	Structure (SMILES)
10 to 100	CCN1C(=O)C(C)N(C2CCCC2)c2nc(N3C(=O)c4ccccc4C3c3ccc(F)cc3)ccc21 (racemic) [Example A24, 4-cyclopentyl-1-ethyl-6-(1-(4-fluorophenyl)-3-oxoisoindolin-2-yl)-3-methyl-3,4-dihydropyrido[2,3-b]pyrazin-2(1H)-one]
10 to 100	CCN1C(=O)C(C)N(C2CCCC2)c2nc(-n3c(=O)c4ccccc4n3-c3ccc(Cl)cc3)ccc21 (racemic) [Example A28, 6-(1-(4-chlorophenyl)-3-oxo-1,3-dihydro-2H-indazol-2-yl)-4-cyclopentyl-1-ethyl-3-methyl-3,4-dihydropyridine [2,3-b]pyrazin-2(1H)-one]
10 to 100	CC1C(=O)N(C)c2ccc(N3C(=O)c4ccccc4C3(O)c3ccc(Cl)cc3)nc2N1C1CC1 (racemic) [Example A30, 6-(1-(4-chlorophenyl)-1-hydroxy-3-oxoisoindolin-2-yl)-4-cyclopropyl-1,3-dimethyl-3,4-dihydropyrido [3,2-b]pyrazin-2(H)-one]
≤ 10	CC1C(=O)N(C)c2ccc(N3C(=O)c4ccccc4C3c3ccc(Cl)cc3)nc2N1CCO (racemic) [Example A34, 6-(1-(4-chlorophenyl)-3-oxoisoindolin-2-yl)-4-(2-hydroxyethyl)-1,3-dimethyl-3,4-dihydropyrido [2,3-b]pyrazin-2(1H)-one]
10 to 100	CC1C(=O)N(C)c2ccc(N3C(=O)c4ccccc4C3c3ccc(Cl)cc3)nc2N1Cc1ccccc1 (racemic) [Example A35, 4-benzyl-6-(1-(4-chlorophenyl)-3-oxoisoindolin-2-yl)-1,3-dimethyl-3,4-dihydropyrido [2,3-b]pyrazin-2(1H)-one]
100 to 1000	CC1C(=O)N(C)c2ccc(N3C(=O)c4ccccc4C3Cc3ccccc3)nc2N1C1CC1 (racemic) [Example A37, 4-cyclopropyl-6-(1-benzyl-3-oxoisoindolin-2-yl)-1,3-dimethyl-3,4-dihydropyrido [2,3-b]pyrazin-2(1H)-one]
10 to 100	CC1C(=O)N(C)c2ccc(N3C(=O)c4ccccc4C3c3ccc(F)cc3)nc2N1C1CCCC1 (racemic) [Example A38, 4-cyclopentyl-6-(1-(4-fluorophenyl)-3-oxoisoindolin-2-yl)-1,3-dimethyl-3,4-dihydropyrido [2,3-b]pyrazin-2(1H)-one]
≤ 10	CSc1cccc2c1C(=O)N(c1ccc3c(n1)N(C)[C@H](C)C(=O)N3C)C2c1cccnc1 (mixture of isomers) [Example A61, (3R)-1,3,4-trimethyl-6-(4-(methylthio)-3-oxo-1-(pyridin-3-yl)isoindolin-2-yl)-3,4-dihydropyrido[2,3-b]pyrazin-2(1H)-one]

More lines, now with the values behind:

Structure (SMILES)	IC50 [nM]
CC1C(=O)N(C)c2ccc(N3C(=O)c4ccccc4C3c3ccc(F)cc3)nc2N1C1CCCC1 (racemic) [Example A38-P2, 4-cyclopentyl-6-(1-(4-fluorophenyl)-3-oxoisoindolin-2-yl)-1,3-dimethyl-3,4-dihydropyrido [2,3-b]pyrazin-2(1H)-one]	≤ 10
CC1C(=O)N(C)c2cnc(-n3c(=O)c4ccccc4n3-c3ccc(Cl)cc3)nc2N1C1CC1 (single isomer, unassigned) [Compound A89-P3]	≤ 10
CC1C(=O)N(C)c2ccc(N3C(=O)CCC3c3ccccc3)nc2N1C1CC1 (single isomer, unassigned) [Example A1-P2-2, 4-cyclopropyl-1,3-dimethyl-6-(2-oxo-5-phenyl-pyrrolidin-1-yl)-3,4-dihydropyrido[2,3-b]pyrazin-2(1H)-one]	≤ 10
CC1C(=O)N(C)c2ccc(N3C(=O)CCC3c3ccccc3)nc2N1C1CCCC1 (single isomer, unassigned) [Example A2-P2-2, 4-cyclopentyl-1,3-dimethyl-6-(2-oxo-5-phenylpyrrolidin-1-yl)-3,4-dihydropyrido[2,3-b]pyrazin-2(1H)-one]	≤ 10
C[C@@H]1C(=O)N(C)c2ccc(N3C(=O)CCC3c3ccccc3)nc2N1C (single isomer, unassigned) [Example A4-P2]	≤ 10
C[C@@H]1C(=O)N(C)c2ccc(N3C(=O)CCC3c3ccccc3)nc2N1C1CCOCC1 (single isomer, unassigned) [Example A5-P1]	≤ 10
CC1C(=O)N(C)c2ccc(N3C(=O)CCC3c3ccccn3)nc2N1C1CC1 (single isomer, unassigned) [Example A6-P1, 4-cyclopropyl-1,3-dimethyl-6-(2-oxo-5-(pyridin-2-yl)pyrrolidin-1-yl)-3,4-dihydropyrido[2,3-b]pyrazin-2(1H)-one]	≤ 10
CC1C(=O)N(C)c2ccc(N3C(=O)CCC3c3ccc(F)cc3F)nc2N1C1CC1 (single isomer, unassigned) [Example A7-P3, 4-cyclopropyl-6-(2-(2,4-difluorophenyl)-5-oxopyrrolidin-1-yl)-1,3-dimethyl-3,4-dihydropyrido[2,3-b]pyrazin-2(1H)-one]	≤ 10
Cc1ccc(C2CCC(=O)N2c2ccc3c(n2)N(C2CC2)C(C)C(=O)N3C)cc1 (single isomer, unassigned) [Example A8-P3, 4-cyclopropyl-6-(2-(4-methylphenyl)-5-oxopyrrolidin-1-yl)-1,3-dimethyl-3,4-dihydropyrido[2,3-b]pyrazin-2(1H)-one]	≤ 10
Cc1cc(N2C(=O)CCC2c2ccccc2)nc2c1N(C)C(=O)C(C)N2C1CC1 (single isomer, unassigned) [Example A9-P1-2, 4-cyclopropyl-1,3,8-trimethyl-6-(2-oxo-5-phenylpyrrolidin-1-yl)-3,4-dihydropyrido[2,3-b]pyrazin-2(1H)-one]	10 to 100
CC1C(=O)N(C)c2ccc(N3C(=O)CCN3c3ccc(Cl)cc3)nc2N1C1CC1 (single isomer, unassigned) [Example A10-P2, 6-(2-(4-chlorophenyl)-5-oxopyrazolidin-1-yl)-4-cyclopropyl-1,3-dimethyl-3,4-dihydropyrido[2,3-b]pyrazin-2(1H)-one]	10 to 100
CC1C(=O)N(C)c2ccc(N3C(=O)c4ccccc4C3c3ccccc3)nc2N1C1CC1 (single isomer, unassigned) [Example A11-P3, 4-cyclopropyl-1,3-dimethyl-6-(1-oxo-3-phenylisoindolin-2-yl)-3,4-dihydropyrido[2,3-b]pyrazin-2(1H)-one]	≤ 10
CC1C(=O)N(C)c2ccc(-n3c(=O)c4ccccc4n3-c3ccc(Cl)cc3)nc2N1C1CC1 (single isomer, unassigned) [Example A12-P1, 6-(1-(4-chlorophenyl)-3-oxo-1,3-dihydro-2H-indazol-2-yl)-4-cyclopropyl-1,3-dimethyl-3,4-dihydropyrido[2,3-b]pyrazin-2(1H)-one]	≤ 10
CC1C(=O)N(C)c2ccc(N3C(=O)c4cccnc4C3(O)c3ccc(F)cc3F)nc2N1C1CC1 (single isomer, unassigned) [Example A13-P1, 4-cyclopropyl-6-(7-(2,4-difluorophenyl)-7-hydroxy-5-oxo-5,7-dihydro-6H-pyrrolo[3,4-b]pyridin-6-yl)-1,3-dimethyl-3,4-dihydropyrido[2,3-b]pyrazin-2(1H)-one]	≤ 10
CC1C(=O)N(C)c2ccc(N3C(=O)CCC3c3cccnc3)nc2N1C1CC1 (single isomer, unassigned) [Example A14-P1, 4-cyclopropyl-1,3-dimethyl-6-(2-oxo-5-(pyridin-3-yl)pyrrolidin-1-yl)-3,4-dihydropyrido[2,3-b]pyrazin-2(1H)-one]	≤ 10
CC1C(=O)N(C)c2c(F)cc(N3C(=O)CCC3c3ccc(Cl)cc3)cc2N1C1CC1 (single isomer, unassigned) [Example A15-P1-1, 6-(2-(4-chlorophenyl)-5-oxopyrrolidin-1-yl)-4-cyclopropyl-8-fluoro-1,3-dimethyl-3,4-dihydroquinoxalin-2(1H)-one]	≤ 10
CCN1c2nc(N3C(=O)CCC3c3ccc(F)cc3)ccc2N(C)C(=O)[C@H]1C (single isomer, unassigned) [Example A16-P1]	≤ 10
CC(=O)N1c2nc(N3C(=O)CCC3c3ccc(F)cc3)ccc2N(C)C(=O)[C@H]1C (single isomer, unassigned) [Example A17-P1]	100 to 1000
CC1C(=O)N(C)c2ccc(N3C(=O)NCC3c3ccccc3)nc2N1C1CC1 (single isomer, unassigned) [Example A18-P4, 4-cyclopropyl-1,3-dimethyl-6-(2-oxo-5-phenylimidazolidin-1-yl)-3,4-dihydropyrido[2,3-b]pyrazin-2(1H)-one]	≤ 10
CC1C(=O)N(C)c2ccc(N3C(=O)N(C)CC3c3ccccc3)nc2N1C1CC1 (single isomer, unassigned) [Example A19-P3, 4-cyclopropyl-1,3-dimethyl-6-(3-methyl-2-oxo-5-phenylimidazolidin-1-yl)-3,4-dihydropyrido[2,3-b]pyrazin-2(1H)-one]	≤ 10
